Laboratory results as given in patent US6765127B1, “Invertebrate intestinal mucin cDNA and related products and methods” (Boyce Thompson Institute for Plant Research, Inc., priority 1998, dated 2004).

Columns and labels:
TnGV enhancin = TnGV enhancin (Trichoplusia ni granulosis virus, UniProt P29998); conditions: 10 mM EDTA in incubation buffer
Method: The degradation of IIM was examined by SDS/PAGE analysis. A parallel treatment of IIM without enhancin was included as a control. […] To confirm the metalloprotease nature of enhancin, IIM was incubated with TnGV enhancin in the presence of 10 mM EDTA.

[1] = system: endogenous midgut proteases; test: Resistance of IIM in PMs to endogenous digestive proteases; design: species or system T. ni
Source text: The stability of the IIM when exposed to degestive enzymes for long periods is aided by the O-linked carbohydrate moieties found in associated glycoproteins. […] Control treatments using PMS with inactivated or inhibited endogenous midgut proteases, confirmed that the degradation of IIM in the presence of O-glycosidase was a result of hydrolysis by endogenous digestive proteases, following removal of the protective carbohydrate moiety, galactose β(1-3) N-acetylgalactosamine.

T. ni larvae [2] = test: Baculovirus infection of Calcofluor treated larvae; format: in vivo; conditions: Calcofluor disrupted PM formation
T. ni PMs = test: Extraction of chitin binding proteins from dissected PMs with Calcofluor
Source text: (§1) Calcofluor is a fluorescent dye with high chitin binding affinity. It has been utilized in studies on the formation of fungi and algal cell walls which are protective structures containing chitin and proteins. Calcofluor interferes with the cell wall formation by binding to nascent chitin molecules during cell wall formation, thus blocking chitin fibril assembly. Similar investigations on insect midgut chitin fibril formation using the chitin binding agent Calcofluor had not been approached until our recent studies were carried out. […] These isolated proteins have high chitin binding properties and are normally not extractable from fully formed PMs by detergents or extreme pH conditions. […] We believe that this phenomenon is due to the disruption of chitin fibril formation by the binding of Calcofluor to nascent chitin molecules as observed in other organisms.

Hyphantria cunea = test: PM formation with Calcofluor; format: in vivo
Pseudaletia unipuncta = test: PM formation with Calcofluor; format: in vivo
Helicoverpa zea = test: PM formation with Calcofluor; format: in vivo
T. ni larvae [3] = test: Feeding T. ni larvae artificial diet containing Calcofluor; format: in vivo; conditions: artificial diet containing 1% Calcofluor
T. ni larvae [4] = test: PM formation in larvae fed Calcofluor; format: in vivo; conditions: Calcofluor fed to T. ni larvae
Source text: as §1

Lymantria dispar = test: PM formation with Calcofluor; format: in vivo
[5] = system: mucin isolated from Pseudaletia unipuncta peritrophic membranes
[6] = system: T1, invertebrate intestinal mucin (IIM) from Trichoplusia ni peritrophic membranes (native protein)
T1 sequence: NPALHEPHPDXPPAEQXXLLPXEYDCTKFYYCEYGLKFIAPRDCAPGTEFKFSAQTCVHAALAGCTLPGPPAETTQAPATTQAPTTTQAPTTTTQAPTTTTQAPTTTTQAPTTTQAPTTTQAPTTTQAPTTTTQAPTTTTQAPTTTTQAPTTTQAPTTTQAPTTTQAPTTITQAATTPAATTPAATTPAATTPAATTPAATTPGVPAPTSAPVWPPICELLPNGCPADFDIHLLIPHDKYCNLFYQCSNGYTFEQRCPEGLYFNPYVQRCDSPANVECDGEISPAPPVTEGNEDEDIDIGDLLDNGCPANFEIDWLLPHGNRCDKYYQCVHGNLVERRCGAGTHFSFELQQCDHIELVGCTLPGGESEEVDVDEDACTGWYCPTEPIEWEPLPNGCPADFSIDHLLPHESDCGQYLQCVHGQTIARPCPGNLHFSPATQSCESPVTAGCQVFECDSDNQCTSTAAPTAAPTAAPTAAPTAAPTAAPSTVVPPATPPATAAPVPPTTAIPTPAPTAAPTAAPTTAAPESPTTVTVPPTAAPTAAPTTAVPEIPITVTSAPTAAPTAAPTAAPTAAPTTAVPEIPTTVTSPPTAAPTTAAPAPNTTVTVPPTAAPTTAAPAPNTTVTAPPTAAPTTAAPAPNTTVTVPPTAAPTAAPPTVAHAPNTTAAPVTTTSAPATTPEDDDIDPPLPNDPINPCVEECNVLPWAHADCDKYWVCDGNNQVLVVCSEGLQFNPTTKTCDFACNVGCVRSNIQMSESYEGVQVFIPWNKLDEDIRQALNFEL

Chain of TnGV enhancin (P29998 whole entry): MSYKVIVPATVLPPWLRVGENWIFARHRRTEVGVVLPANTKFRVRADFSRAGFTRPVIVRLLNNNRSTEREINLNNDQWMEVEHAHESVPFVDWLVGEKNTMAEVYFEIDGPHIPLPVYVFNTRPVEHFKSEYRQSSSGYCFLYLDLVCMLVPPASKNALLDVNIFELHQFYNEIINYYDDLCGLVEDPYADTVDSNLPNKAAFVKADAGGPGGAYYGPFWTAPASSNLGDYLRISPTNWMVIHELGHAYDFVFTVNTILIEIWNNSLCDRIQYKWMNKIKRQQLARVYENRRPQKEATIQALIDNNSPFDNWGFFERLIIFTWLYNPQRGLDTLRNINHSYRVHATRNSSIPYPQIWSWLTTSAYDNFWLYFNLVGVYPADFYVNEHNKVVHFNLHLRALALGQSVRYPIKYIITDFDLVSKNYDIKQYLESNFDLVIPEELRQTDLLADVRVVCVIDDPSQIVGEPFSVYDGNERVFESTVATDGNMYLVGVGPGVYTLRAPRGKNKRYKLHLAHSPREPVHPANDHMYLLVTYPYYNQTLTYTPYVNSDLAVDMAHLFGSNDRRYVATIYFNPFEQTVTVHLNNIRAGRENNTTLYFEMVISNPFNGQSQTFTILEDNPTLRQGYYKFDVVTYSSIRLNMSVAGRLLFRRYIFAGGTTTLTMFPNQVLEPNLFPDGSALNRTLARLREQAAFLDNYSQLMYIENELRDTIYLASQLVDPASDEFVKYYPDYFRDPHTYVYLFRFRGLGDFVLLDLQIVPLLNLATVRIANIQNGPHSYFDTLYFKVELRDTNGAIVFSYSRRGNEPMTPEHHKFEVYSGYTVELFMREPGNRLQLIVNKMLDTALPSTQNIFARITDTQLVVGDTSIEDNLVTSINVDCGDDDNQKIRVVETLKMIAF

## O=C(O)CN(CCN(CC(=O)O)CC(=O)O)CC(=O)O [EDTA]
TnGV enhancin
  effect on digestion of IIM by TnGV enhancin: blocked the digestion of the IIM

## IIM: novel invertebrate intestinal mucin from T. ni peritrophic membranes; isoforms IIM14 and IIM22
[1]; in the presence of O-glycosidase
  degradation of IIM in PMs by endogenous digestive proteases: quickly degraded
[1]; sixteen hour incubation
  degradation of IIM in PMs by endogenous digestive proteases: no degradation

## O=S(=O)([O-])c1cc(Nc2nc(Nc3ccccc3)nc(N(CCO)CCO)n2)ccc1C=Cc1ccc(Nc2nc(Nc3ccccc3)nc(N(CCO)CCO)n2)cc1S(=O)(=O)[O-].[Na+].[Na+] [Calcofluor]
T. ni larvae [2]
  baculovirus infections in the larvae: significantly increased baculovirus infections
T. ni PMs
  extraction of chitin binding proteins from dissected PMs: extract and solubilize chitin binding proteins
Hyphantria cunea
  PM disruption/inhibition: further verified
Pseudaletia unipuncta
  PM disruption/inhibition: further verified
Helicoverpa zea
  PM disruption/inhibition: further verified
T. ni larvae [3]
  insect mortality: insect mortality
  larval growth: significantly slowed the growth
T. ni larvae [4]
  PM formation: completely inhibited and/or disrupted PM formation
Lymantria dispar
  PM disruption/inhibition: further verified

## Trichoplusia ni granulosis virus (TnGV) enhancin
[5]
  degradation of the mucin: This mucin is also degraded by the TnGV enhancin
[6]
  degradation of IIM examined by SDS/PAGE (in vitro, 1.25 µg/ml enhancin, 37° C., 3 hours or overnight): Incubation of IIM with TnGV enhancin showed that the enhancin had activity against IIM.
  digestion of IIM in the presence of 10 mM EDTA: The addition of 10 mM EDTA to the incubation buffer blocked the digestion of the IIM and confirmed the metalloprotease nature of enhancin.
